According to patent US11919854B2, “P2RX7 modulators in therapy” (Centre national de la recherche scientifique, priority 2018, dated 2024):

Columns and labels:
B16F10 cells = experiment: Syngeneic tumor mice model, B16F10 subcutaneous; assay type: in vivo, C57BL/6 mice
Method: 5×10^5 B16F10 cells were injected sub cutaneously in the right flank of C57BL/6 mice. Mice received HEI2328 (n=8, ip, 2.3 mg/kg in 10% DMSO/PBS) daily or placebo (n=8, 10% DMSO/PBS). A. incidence of tumor appearance B. Tumor size (mm2) and C. tumor weight at sacrifice day (J12). *, p<0.05 (Mann-Whitney test).
(§1) 5×10^5 LLC or 5×10^5 B16F10 cells were injected sub cutaneously in the right flank of C57BL6 mice. Mice received HEI3090 (ip, 2.5 mg/kg in 10% DMSO/PBS) daily or placebo (10% DMSO/PBS). A,C. incidence of tumor appearance B,D. Tumor size (mm2) and tumor weight at sacrifice day (J12). E. HEI-treated tumors are more immunogenic. Expression of CMH1 (H2K^b/D^b) and PD-L1 by LLC (black) and B16F10 (grey) tumors is shown in dot plots. Numbers highlighted the percentage of tumor cells positive for H2K^b/D^b and PD-L1. […] F. CD-45 positive infiltrates is increased in LLC and B16F10 tumors. *, p<0.05; **, p<0.01; ***, p<0.001 Mann-Whitney test.
(§2) 5×10^5 LLC or 5×10^5 B16F10 cells were injected sub cutaneously in the right flank of C57BL6 mice. Mice received HEI3090 (ip, 2.5 mg/kg in 10% DMSO/PBS) daily or placebo (10% DMSO/PBS). A. The quantity of immunosuppressive cells is reduced. Dot plot of representative experiment. Numbers highlighted the percentage of M-MDSC and PMN-MDSC. […] B. The quantity of effector T cells ([…], NK, CD4+) is increased.
Therefore the inventors tested this compound on a classical tumor mice model. 5×10^5 B16F10 cells (in 200 μl PBS) were injected subcutaneously in the right flank of C57B16 mice that received a daily intraperitoneal injection of 2.3 mg/kg HEI2328 (in PBS/10% DMSO) or placebo (PBS/10% DMSO) for 12 days. […] However, this encouraging result was not statistically significant.
(§3) 4.2. By killing tumoral cells, HEI3090 may represent a new anti-tumor treatment. To test this hypothesis, immunocompetent C57B16J mice were subcutaneously injected with 5×10^5 B16F10 or 5×10^5 LLC (Lewis Lung Cancer) cells and treated daily with HEI3090 (ip, 2.5 mg/kg in 10% DMSO/PBS) or placebo (10% DMSO/PBS). […] In both tumor mice models, tumors weight in the treated group was reduced by 10-fold in the B16F10 model (8 mg vs 81 mg) and by 4-folds in the LLC model (80 mg vs 295 mg). Of interest, tumors from the HEI3090 treated group are more immunogenic than tumors from the placebo group.

[1] = system: B16F10 melanoma cell line; experiment: Large pore opening (Topro3) in B16F10 melanoma cell line; assay type: cell-based
Method: Calcium channel activity (Fluo4AM probe) and large pore opening (Topro3 probe) were analysed by FACS. Unstimulated (NS) or cells treated with HEI2328 (50 μM) alone or with BzATP (500 μM) were analysed. (A) Representative dots plots. Numbers highlighted the percentage of positive cells.
A. Large pore opening. Dot plot of representative experiment. Numbers highlighted the percentage of positive cells. […] B. representative curve of XTT absorbance over the time. […] Mean±SEM are shown. ***, p<0.001; ****, p<0.0001 Mann-Whitney test.
4.1. […] To test this hypothesis, immunocompetent C57B6J (Envigo, Gannat France) mice were injected with the melanoma cell line B16-F10.
Of interest, potentiation of large pore opening correlated with increased-B16F10 cell death, as illustrated in FIG. 9. Cells treated during 1 h with BzATP and HEI3090 incorporated 3-fold more Topro3 than cells treated with BzATP only (FIG. 9A). Longer incubation increased cell death, since it was observed up to 80% of dead cells after 3 h treatment (FIG. 9B).

[2] = Stability in mouse liver microsomes; assay type: in vitro ADME; details: 1 μM; 0, 5, 10, 20, 30 and 40 min; mass spectrometry
Method: A. HEI-2328 and -3090 are stable molecules. Mouse liver microsomes from BD Gentest (ref 5345001) were incubated with HEI-2314, -2328, -2333 and -3090 at 1 μM for 0, 5, 10, 20, 30 and 40 min. The stability of the compounds was assayed by mass spectrometry.
Stability was studied in the mouse liver microsome system—and human, not shown—(FIG. 13A) and directly in vivo, for HEI3090 molecule (FIG. 13B). These experiments highlighted that HEI3090 is found at a concentration of maximum 2.5 μM in the plasma of mice injected with HEI3090 (ip, 1.5 mg/kg in 10% DMSO).

[3] = Solubility (qualitative statement); assay type: physicochemical
[4] = system: B16F10 or LLC (Lewis Lung Cancer) cells; experiment: Syngeneic tumor mice models, statements covering both B16F10 and LLC; assay type: in vivo, C57BL6 mice
Method: as §1, §2, §3

B16-F10 cells = experiment: In vivo assay for immunogenic cell death (ICD), B16-F10; design: species or system mice; details: B16-F10 exposed to 3 mM ATP and 50 μM HEI3090, contralateral challenge
Method: a-b. In vivo assay for the evaluation of HEI3090 as an inducer of immunogenic cell death.
To induce B16-F10 death, cells were exposed to 3 mM ATP and 50 μM HEI3090 and 1.105 dying cells, or PBS as control, were injected sc in the right flank (n=4). 7 days later, 0.5.105 live B16-F10 cells were injected s.c. in the contralateral flank. (a). Curves shown mean of tumor growth in the contralateral site (b).
The inventors performed dedicated experiment to test the hypothesis that HEI3090 may induce immunogenic cell death (ICD).

## O=C(NCc1ccc(Cl)cc1Cl)[C@@H]1CCC(=O)N1C(=O)Nc1ccc(Cl)c(Cl)c1 [HEI2328, (S)—N^2-(2,4-Dichlorobenzyl)-N^1-(3,4-dichlorophenyl)-5-oxopyrrolidine-1,2-dicarboxamide]
B16F10 cells; HEI2328 2.3 mg/kg ip daily, 12 days
  tumor incidence: delayed
B16F10 cells; HEI2328 2.3 mg/kg ip daily, 12 days, not statistically significant
  decrease of tumor growth: 20%
[1]; HEI2328 50 μM added on BzATP (500 μM) treated cells
  increase of large pore opening (Topro3 positive cells): more than 6 fold
[1]; absence of BzATP, 50 μM
  toxic effect of compound alone: no toxic effect
[2]
  stability in mouse liver microsomes: stable
[3]
  solubility: poorly soluble

## O=C(NCc1ccc(Cl)cc1Cl)[C@@H]1CCC(=O)N1C(=O)Nc1ccc(Cl)nc1 [HEI3090, (S)—N^1-(6-Chloropyridin-3-yl)-N^2-(2,4-dichlorobenzyl)-5-oxopyrrolidine-1,2-dicarboxamide]
B16F10 cells; HEI3090 ip 2.5 mg/kg daily
  immunosuppressive cells (M-MDSC) in tumor infiltrates: less M-MDSC
B16F10 cells; HEI3090 ip 2.5 mg/kg daily (placebo 81 mg)
  tumors weight: 8 mg
B16F10 cells; HEI3090 ip 2.5 mg/kg daily, vs placebo
  reduction of tumors weight: 10 fold
[4]; HEI3090 ip 2.5 mg/kg daily
  CD45 positive cells in tumors: enriched with CD45 positive cells
  delay of tumor appearance: 1 to 4 days
  ratio between effector cells (Tγδ, NK, CD4+) and total MDSC: in favor to effector cells
  tumor expression of PD-L1 vs placebo: 2 fold
  tumor expression of major complex histocompatibility 1 (MCH1) vs placebo: 2 fold
  tumor growth: potently inhibits tumor growth
[4]; HEI3090 ip 2.5 mg/kg daily, sacrifice day J12
  tumor volume and tumor weight: drastically reduced
[4]; therapeutically treated mice (increase from 22)
  overall mice survival: 50 days
[4]; tumor bearing mice treated with HEI3090
  immune cells within the spleen of treated mice: unable to detect any modification of immune cells within the spleen
B16-F10 cells
  induction of immunogenic cell death (ICD): does not promote ICD
[1]; 1 h with BzATP and HEI3090
  Topro3 incorporation vs cells treated with BzATP only: 3 fold
[2]
  stability in mouse liver microsomes: stable
[3]
  solubility: more soluble
